Tests used:
Type in all cases: in vivo
[1] = test system: barnyardgrass (Echinochloa crus-galli); experiment: Test B pre-/postemergence plant response
Procedure, shortened: (§1)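 Visual injury rating, 0 (no effect) to 100 (complete control), vs untreated controls after ~10 d greenhouse. Pre: directed soil spray after planting in loam/sand. Post: plants 2–10 cm, 1–2 leaf stage. Compound in non-phytotoxic solvent plus surfactant.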

corn (Zea mays) = experiment: Test B pre-/postemergence plant response
Procedure, shortened: as §1

[2] = test system: giant foxtail (Setaria faberii); experiment: Test B pre-/postemergence plant response
Procedure, shortened: as §1

[3] = test system: pigweed (Amaranthus retroflexus); experiment: Test B pre-/postemergence plant response
Procedure, shortened: as §1

[4] = test system: wheat (Triticum aestivum); experiment: Test B pre-/postemergence plant response
Procedure, shortened: as §1

[5] = test system: barnyardgrass (Echinochloa crus-galli); experiment: Test C flooded paddy test plant response; settings: Flood, 250 g ai/ha; scale of 0 to 100 where 0 is no effect and 100 is complete control; 13 to 15 days
Procedure, shortened: (§2)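 Visual injury ratings (0, no effect; 100, complete control) were assigned after 13 to 15 days in a greenhouse, comparing treated plants with controls. Compounds had been added straight into paddy water over 2-leaf-stage plants flooded to 3 cm.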

[6] = test system: ducksalad (Heteranthera limosa); experiment: Test C flooded paddy test plant response; settings: Flood, 250 g ai/ha; scale of 0 to 100 where 0 is no effect and 100 is complete control; 13 to 15 days
Procedure, shortened: as §2

rice (Oryza sativa) = experiment: Test C flooded paddy test plant response; settings: Flood, 250 g ai/ha; scale of 0 to 100 where 0 is no effect and 100 is complete control; 13 to 15 days
Procedure, shortened: as §2

[7] = test system: small-flower umbrella sedge (Cyperus difformis); experiment: Test C flooded paddy test plant response; settings: Flood, 250 g ai/ha; scale of 0 to 100 where 0 is no effect and 100 is complete control; 13 to 15 days
Procedure, shortened: as §2

[8] = test system: galium (catchweed bedstraw, Galium aparine); experiment: Test D pre-/postemergence plant response
Source text: (§3) Seeds of plant species selected from blackgrass (Alopecurus myosuroides), Italian ryegrass (Lolium multiflorum), winter wheat (Triticum aestivum), galium (catchweed bedstraw, Galium aparine), corn (Zea mays), large (Lg) crabgrass (Digitaria sanguinalis), giant foxtail (Setaria faberii), johnsongrass (Sorghum halepense), lambsquarters (Chenopodium album), morningglory (Ipomoea coccinea), yellow nutsedge (Cyperus esculentus), pigweed (Amaranthus retroflexus), ragweed (common ragweed, Ambrosia elatior), soybean (Glycine max), bamyardgrass (Echinochloa crus-galli), oilseed rape (Brassica napus), waterhemp (common waterhemp, Amaranthus rudis), and velvetleaf (Abutilon theophrasti) were planted into a blend of loam soil and sand and treated preemergence with test chemicals formulated in a non-phytotoxic solvent mixture which included a surfactant. At the same time, plants selected from these crop and weed species and also kochia (Kochia scoparia), wild oat (Avena fatua), and chickweed (common chickweed, Stellaria media) were planted in pots containing Redi-Earth® planting medium (Scotts Company, 14111 Scottslawn Road, Marysville, Ohio 43041) comprising spaghnum peat moss, vermiculite, wetting agent and starter nutrients and treated with postemergence applications of test chemicals formulated in the same manner. Plants ranged in height from 2 to 18 cm (1- to 4-leaf stage) for postemergence treatments. Treated plants and controls were maintained in a greenhouse for 13 to 15 days, after which time all species were compared to controls and visually evaluated. Plant response ratings, summarized in Table D, are based on a scale of 0 to 100 where 0 is no effect and 100 is complete control. A dash (-) response means no test result.

[9] = test system: johnsongrass (Sorghum halepense); experiment: Test D pre-/postemergence plant response
Source text: as §3

[10] = test system: oilseed rape (Brassica napus); experiment: Test D pre-/postemergence plant response
Source text: as §3

[11] = test system: ragweed (common ragweed, Ambrosia elatior); experiment: Test D pre-/postemergence plant response
Source text: as §3

[12] = test system: winter wheat (Triticum aestivum); experiment: Test D pre-/postemergence plant response
Source text: as §3

[13] = test system: yellow nutsedge (Cyperus esculentus); experiment: Test D pre-/postemergence plant response
Source text: as §3

[14] = Postemergence, 1000 g ai/ha, 0 to 100 scale (0 no effect, 100 complete control)
[15] = Preemergence, 1000 g ai/ha, 0 to 100 scale (0 no effect, 100 complete control)
[16] = Postemergence, 31 g ai/ha, scale 0 to 100 (0 no effect, 100 complete control)
[17] = Postemergence, 62 g ai/ha, scale 0 to 100, 0 no effect, 100 complete control
[18] = Postemergence, 125 g ai/ha, scale 0 to 100, 0 no effect, 100 complete control
[19] = 125 g ai/ha, postemergence, 0 to 100 scale, 0 no effect, 100 complete control
[20] = Postemergence, 500 g ai/ha, 0 to 100 scale (0 no effect, 100 complete control)
[21] = Preemergence, 125 g ai/ha, 0 to 100 scale (0 no effect, 100 complete control)
[22] = Preemergence, 500 g ai/ha, 0 to 100 scale where 0 is no effect and 100 is complete control
[23] = Preemergence, 16 g ai/ha, scale 0 to 100 (0 no effect, 100 complete control)
[24] = Preemergence, 31 g ai/ha, scale 0 to 100 (0 no effect, 100 complete control)
[25] = Preemergence, 62 g ai/ha, scale 0 to 100 (0 no effect, 100 complete control)

Clc1cnc(Oc2ccccc2-c2cc(Cl)sn2)nc1 [Compound 192]
Plant response rating, Barnyardgrass [1, 14]: 100
Plant response rating, Barnyardgrass [1, 15]: 100
Plant response rating, Corn (corn (Zea mays); [14]): 30
Plant response rating, Foxtail, Giant [2, 14]: 90
Plant response rating, Foxtail, Giant [2, 15]: 100
Plant response rating, Pigweed [3, 14]: 100
Plant response rating, Pigweed [3, 15]: 100
Plant response rating, Wheat [4, 14]: 30
Barnyardgrass plant response rating [5]: 0
Ducksalad plant response rating [6]: 60
Rice plant response rating (rice (Oryza sativa)): 0
Sedge, Umbrella plant response rating [7]: 40
Plant response rating (scale 0 to 100), Galium ([8]; Postemergence, 16 g ai/ha): 35
Galium plant response rating [8, 16]: 50
Plant response rating, Galium [8, 17]: 50
Plant response rating, Galium [8, 18]: 50
Plant response rating (scale 0 to 100), Johnsongrass ([9]; Postemergence, 16 g ai/ha): 0
Johnsongrass plant response rating [9, 16]: 5
Plant response rating, Johnsongrass [9, 17]: 5
Plant response rating, Johnsongrass [9, 18]: 5
Plant response rating (scale 0 to 100), Oilseed Rape ([10]; Postemergence, 16 g ai/ha): 0
Oilseed Rape plant response rating [10, 16]: 0
Oilseed Rape plant response rating [10, 17]: 5
Plant response rating, Oilseed Rape [10, 18]: 50
Plant response rating (scale 0 to 100), Ragweed ([11]; Postemergence, 16 g ai/ha): 0
Ragweed plant response rating [11, 16]: 5
Ragweed plant response rating [11, 17]: 15
Plant response rating, Ragweed [11, 18]: 45
Plant response rating (scale 0 to 100), Wheat ([12]; Postemergence, 16 g ai/ha): 0
Wheat plant response rating [12, 16]: 0
Wheat plant response rating [12, 17]: 5
Plant response rating, Wheat [12, 18]: 5
Plant response rating (scale 0 to 100), Nutsedge, Yellow ([13]; Postemergence, 16 g ai/ha): 0
Nutsedge, Yellow plant response rating [13, 16]: 5
Nutsedge, Yellow plant response rating [13, 17]: 0
Plant response rating, Nutsedge, Yellow [13, 18]: 5

N#Cc1cccc(Oc2ncc(Cl)cn2)c1-c1cc(C(F)F)on1 [Compound 180]
Plant response rating, Barnyardgrass [1, 19]: 50
Plant response rating, Barnyardgrass [1, 20]: 90
Barnyardgrass plant response rating [1, 21]: 20
Plant response rating, Barnyardgrass [1, 22]: 80
Plant response rating, Corn (corn (Zea mays); [19]): 20
Plant response rating, Corn (corn (Zea mays); [20]): 70
Plant response rating, Foxtail, Giant [2, 19]: 80
Plant response rating, Foxtail, Giant [2, 20]: 100
Foxtail, Giant plant response rating [2, 21]: 90
Plant response rating, Foxtail, Giant [2, 22]: 100
Plant response rating, Pigweed [3, 19]: 100
Plant response rating, Pigweed [3, 20]: 100
Pigweed plant response rating [3, 21]: 100
Plant response rating, Pigweed [3, 22]: 100
Plant response rating, Wheat [4, 19]: 60
Plant response rating, Wheat [4, 20]: 90
Barnyardgrass plant response rating [5]: 0
Ducksalad plant response rating [6]: 90
Rice plant response rating (rice (Oryza sativa)): 0
Sedge, Umbrella plant response rating [7]: 80
Plant response rating (scale 0 to 100), Galium ([8]; Postemergence, 16 g ai/ha): 65
Galium plant response rating [8, 16]: 75
Plant response rating, Galium [8, 17]: 100
Plant response rating, Galium [8, 18]: 100
Plant response rating (scale 0 to 100), Galium ([8]; Preemergence, 125 g ai/ha): 98
Plant response rating, Galium [8, 23]: 75
Plant response rating, Galium [8, 24]: 80
Plant response rating, Galium [8, 25]: 98
Plant response rating (scale 0 to 100), Johnsongrass ([9]; Postemergence, 16 g ai/ha): 0
Johnsongrass plant response rating [9, 16]: 0
Plant response rating, Johnsongrass [9, 17]: 5
Plant response rating, Johnsongrass [9, 18]: 5
Plant response rating (scale 0 to 100), Johnsongrass ([9]; Preemergence, 125 g ai/ha): 90
Plant response rating, Johnsongrass [9, 23]: 0
Plant response rating, Johnsongrass [9, 24]: 10
Plant response rating, Johnsongrass [9, 25]: 60
Plant response rating (scale 0 to 100), Oilseed Rape ([10]; Postemergence, 16 g ai/ha): 5
Oilseed Rape plant response rating [10, 16]: 60
Oilseed Rape plant response rating [10, 17]: 80
Plant response rating, Oilseed Rape [10, 18]: 90
Plant response rating (scale 0 to 100), Oilseed Rape ([10]; Preemergence, 125 g ai/ha): 100
Plant response rating, Oilseed Rape [10, 23]: 70
Plant response rating, Oilseed Rape [10, 24]: 95
Plant response rating, Oilseed Rape [10, 25]: 100
Plant response rating (scale 0 to 100), Ragweed ([11]; Postemergence, 16 g ai/ha): 30
Ragweed plant response rating [11, 16]: 40
Ragweed plant response rating [11, 17]: 35
Plant response rating, Ragweed [11, 18]: 65
Plant response rating (scale 0 to 100), Ragweed ([11]; Preemergence, 125 g ai/ha): 55
Plant response rating, Ragweed [11, 23]: 0
Plant response rating, Ragweed [11, 24]: 5
Plant response rating, Ragweed [11, 25]: 15
Plant response rating (scale 0 to 100), Wheat ([12]; Postemergence, 16 g ai/ha): 5
Wheat plant response rating [12, 16]: 5
Wheat plant response rating [12, 17]: 15
Plant response rating, Wheat [12, 18]: 30
Plant response rating (scale 0 to 100), Wheat ([12]; Preemergence, 125 g ai/ha): 30
Plant response rating, Wheat [12, 23]: 0
Plant response rating, Wheat [12, 24]: 0
Plant response rating, Wheat [12, 25]: 0
Plant response rating (scale 0 to 100), Nutsedge, Yellow ([13]; Postemergence, 16 g ai/ha): 0
Nutsedge, Yellow plant response rating [13, 16]: 0
Nutsedge, Yellow plant response rating [13, 17]: 10
Plant response rating, Nutsedge, Yellow [13, 18]: 15
Plant response rating (scale 0 to 100), Nutsedge, Yellow ([13]; Preemergence, 125 g ai/ha): 30
Plant response rating, Nutsedge, Yellow [13, 23]: 0
Plant response rating, Nutsedge, Yellow [13, 24]: 0
Plant response rating, Nutsedge, Yellow [13, 25]: 0
